Data taken from patent EP0552417B1, “Cyclic peptides and use thereof” (priority 1991, dated 1993).
Where two headings read alike, the source gives them in different places. Values belong to the compound of their own block, whether it stands above or below them. Non-standard residues stand in square brackets, D forms with d. Residues, ends and D or L forms follow the SMILES beside them. Groups on a side chain read outwards from the residue. *: point of attachment. NHPhenethyl = c1ccc(CCN*)cc1; X2 = c1ccc2c(c1)CCN2*; NHBn = c1ccc(CN*)cc1

Legend:
[1] = amide bond, DCC/HONB (active ester), TEA, DMF, 16.0 h, 4 steps
[2] = biological target: T1, NK2 receptor (Bos taurus, UniProt P05363); assay: Assay of affinity for receptor (3): binding inhibiting activity on NK2 receptor, 125I-neurokinin A, membrane fraction of bovine third stomach inner wall; settings: 125I-NKA, 25°C, 3 hours
T1 construct: The membrane fraction containing the receptor was prepared from the inner wall of the bovine third stomach; tissue Kyoto Chuo Chikusan Fukuseibutsu Oroshi Kyoukai (tissue); host or cells: inner wall of bovine third stomach, membrane fraction
T1 sequence (P05363 1-384): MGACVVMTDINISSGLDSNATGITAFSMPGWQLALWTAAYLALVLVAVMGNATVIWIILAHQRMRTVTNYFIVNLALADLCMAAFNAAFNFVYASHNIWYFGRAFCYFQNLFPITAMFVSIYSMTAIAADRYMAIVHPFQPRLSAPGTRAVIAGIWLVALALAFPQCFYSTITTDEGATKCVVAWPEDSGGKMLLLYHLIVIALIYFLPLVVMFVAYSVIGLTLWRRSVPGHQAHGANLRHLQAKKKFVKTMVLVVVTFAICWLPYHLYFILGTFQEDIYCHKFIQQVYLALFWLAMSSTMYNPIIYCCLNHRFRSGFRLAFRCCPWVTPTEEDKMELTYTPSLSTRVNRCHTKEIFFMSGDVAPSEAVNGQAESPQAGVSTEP
Method: Assay of Affinity for Receptor (3) ... Binding Inhibiting Activity on NK2 Receptor
The method of Paul L. M. Van Giersbergen et al. [Proc. Natl. Acad. Sci. U.S.A., 88, 1661 (1991) was modified for this assay. The membrane fraction containing the receptor was prepared from the inner wall of the bovine third stomach (purchased from Kyoto Chuo Chikusan Fukuseibutsu Oroshi Kyoukai).
The inner wall of the bovine third stomach stored at-80°C was cut to 1 cm X 1 cm or less, and disrupted in 3 liters/kg of 50 mM Tris-HCl buffer (pH 7.4) supplemented with 120 mM sodium chloride, 5 mM potassium chloride, 0.02% BSA and 5% sucrose, using a polytron homogenizer (Kinematika, Germany). Then, the disrupted product was centrifuged at 1,000 X g for 10 minutes. The supernatant was further centrifuged at 45,000 X g for 20 minutes. The precipitate was suspended in 200 ml of 50 mM Tris-HCl buffer (pH 7.4) supplemented with 300 mM potassium chloride, 10 mM ethylenediaminetetraacetic acid, 0.1 mM phenylmethylsulfonium fluoride and 0.02% BSA, and gently stirred under ice cooling for 60 minutes. The suspension was centrifuged at 45,000 X g for 20 minutes. The precipitate was washed with 200 ml of 50 mM Tris-HCl buffer (pH 7.4), and stored in the frozen state at -40°C as a receptor sample.
This sample was suspended in a reaction buffer solution [50 mM Tris-HCl buffer (pH 7.4), 0.02% bovine serum albumin and 4 mM manganese chloride] so as to give a protein concentration of 0.7 mg/ml, and 100 µl thereof was used for reaction. A test sample and ^125I-NKA (0.61 KBq, ^125I-neurokinin A, 81.4 TBq/mmol, Du Pont/NEN Research Products, U.S.A.) were also added, and reacted in 0.2 ml of the reaction buffer solution at 25°C for 3 hours. The reaction mixture was rapidly filtered through a glass filter (GF/B, Whatman, U.S.A.) using a cell harvester (Type 290PHD, Cambridge Technology Inc.) to terminate the reaction, and washed 3 times with 250 µl of 50 mM Tris-HCl buffer (pH 7.4) supplemented with 0.02% bovine serum albumin. The radioactivity left on the filter was measured with a gamma-ray counter. Results are shown in Table 1 as the binding inhibiting activity (IC50, unit: µM) on the NK2 receptor.

[3] = amide bond; 18-membered ring; HONB/DCC preactivation; HCl; DIEA; DMF; 4.75 mM; 3 steps
[4] = amide bond; 18-membered ring; HONB/DCC (preactivation); HCl/dioxane; TEA; DMF; 9.5 mM; 3 steps
[5] = system: ETB; assay: ETB radio receptor assay *2, 125I-endothelin-1, guinea pig kidney crude membrane fraction; type: binding, Guinea pigs; settings: relative activity, 37 °C, 90 minutes
How it was run: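 Radioligand binding used crude guinea pig kidney membranes (2.1 µg protein) with 740 Bq 125I-endothelin-1. Incubation was 90 min at 37 °C in 50 mM Tris-HCl pH 7.4, 0.1 mM PMSF, 1 mM EDTA, 0.2% BSA. Bound radioactivity was collected by GF/B filtration and measured by gamma counting.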

[6] = biological target: T2, endothelin receptor A (ETA) (Sus scrofa, UniProt Q29010); assay: Assay of affinity for receptor (1): binding activity on ETA receptor, 125I-labeled endothelin-1, porcine heart membrane fraction; parameters: key: relative specific activity; reference cyclic pentapeptide ETA binding = 1.0; settings: specific activity, taking the binding activity of control cyclo[-D-Glu-Ala-D-aIle-Leu-D-Trp-] on receptor A as 1.0, 25°C, 1 hour
T2 construct: A membrane fraction prepared from the porcine heart; from tissue; host or cells: porcine heart membrane fraction
T2 sequence (Q29010 21-427): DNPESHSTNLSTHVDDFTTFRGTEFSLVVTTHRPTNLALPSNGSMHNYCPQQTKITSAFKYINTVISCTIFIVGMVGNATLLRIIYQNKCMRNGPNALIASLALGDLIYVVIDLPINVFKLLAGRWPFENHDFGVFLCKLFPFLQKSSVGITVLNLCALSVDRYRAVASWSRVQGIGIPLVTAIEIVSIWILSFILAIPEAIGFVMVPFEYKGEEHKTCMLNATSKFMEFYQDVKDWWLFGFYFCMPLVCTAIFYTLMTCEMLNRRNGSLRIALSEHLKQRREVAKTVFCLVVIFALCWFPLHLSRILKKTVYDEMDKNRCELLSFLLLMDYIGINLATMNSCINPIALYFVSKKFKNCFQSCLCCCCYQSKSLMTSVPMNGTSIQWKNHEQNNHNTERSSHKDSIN
How it was run: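 Porcine heart membranes (0.15 mg/ml) incubated with 125I-endothelin-1 and test peptide for 1 h at 25°C, then centrifuged; pellet-bound radioactivity counted by gamma counter. Values given as specific activity relative to reference cyclo[-D-Glu-Ala-D-aIle-Leu-D-Trp-], set at 1.0.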

Compound: CC(C)C[C@@H]1NC(=O)[C@@H](c2cccs2)NC(=O)[C@H](CC(=O)O)NC(=O)[C@@H]2C[C@@H](OCc3ccccc3)CN2C(=O)[C@@H](CC(=O)O)NC(=O)[C@@H](Cc2c[nH]c3ccccc23)NC1=O [cyclo[-D-Asp-Hyp(Bzl)-Asp-D-Thg(2)-Leu-D-Trp-]]
ring closure, yield of all isomers ([1]; from CC(C)C[C@H](NC(=O)[C@H](NC(=O)OC(C)(C)C)c1cccs1)C(=O)N[C@H](Cc1c[nH]c2ccccc12)C(=O)N[C@H](CC(=O)OCc1ccccc1)C(=O)N1C[C@H](OCc2ccccc2)C[C@H]1C(=O)N[C@@H](CC(=O)OCc1ccccc1)C(=O)O, 4.98 mM): 5.7%

Compound: CC(C)C[C@@H]1NC(=O)[C@@H](CC(C)C)NC(=O)[C@H](CC(=O)O)NC(=O)[C@H](CC(=O)N[C@@H](Cc2c[nH]c3ccccc23)C(=O)NCCc2ccccc2)NC(=O)[C@@H](CC(=O)O)NC(=O)[C@@H](Cc2c[nH]c3ccccc23)NC1=O [Example 94, Cyclo[-D-Asp-Asp(Trp-NHCH2CH2Ph)-Asp-D-Leu-Leu-D-Trp-]] (cyclo(D([Trp-NHPhenethyl])D[dL]L[dW][dD]))
IC50 [2]: 5.8 µM

Compound: CC(C)C[C@@H]1NC(=O)[C@@H](CC(C)C)NC(=O)[C@H](CC(=O)O)NC(=O)[C@H](CCC(=O)N2CCc3ccccc32)NC(=O)[C@@H](CC(=O)O)NC(=O)[C@@H](Cc2c[nH]c3ccccc23)NC1=O [Example 76, Cyclo[-D-Asp-Glu(R3)-Asp-D-Leu-Leu-D-Trp-]] (cyclo(D[dL]L[dW][dD]E(X2)))
IC50 [2]: 10 µM

Compound: cyclo[-D-Asp(OBzl)-Asn(NHCH2CH2Ind)-Asp(OBzl)-D-Thg(2)-Leu-D-Trp-]
ring closure, crude yield [3]: 90.4%

Compound: cyclo[-D-Asp(OBzl)-Hyp(Bzl)-Asp(OBzl)-D-Leu-Leu-D-Trp-]
ring closure, isolated yield [4]: 82.6%

Compound: CC(C)C[C@@H]1NC(=O)[C@@H](CC(C)C)NC(=O)[C@H](CC(=O)O)NC(=O)[C@H](CCCNC(=O)c2ccccc2)NC(=O)[C@@H](CC(=O)O)NC(=O)[C@@H](Cc2c[nH]c3ccccc23)NC1=O [cyclo[-D-Asp-Orn(COPh)-Asp-D-Leu-Leu-D-Trp-]]
ring closure, yield of all isomers ([1]; from CC(C)C[C@H](NC(=O)[C@@H](CC(C)C)NC(=O)[C@H](CC(=O)OCc1ccccc1)NC(=O)[C@H](CCCNC(=O)c1ccccc1)NC(=O)OC(C)(C)C)C(=O)N[C@H](Cc1c[nH]c2ccccc12)C(=O)N[C@H](CC(=O)OCc1ccccc1)C(=O)O, 5.03 mM): 48.1%

IC50 [2]: 0.35 µM
Binding Activity on ET Receptor (R. act.) ETB*2 [5]: 5.6
Binding Activity on ET Receptor (R. act.) ETA [6]: 2.9
Compound: CC(C)C[C@@H]1NC(=O)[C@@H](CC(C)C)NC(=O)[C@H](Cc2c[nH]c3ccccc23)NC(=O)[C@H](CC(=O)O)NC(=O)[C@@H](CC(=O)O)NC(=O)[C@@H](Cc2c[nH]c3ccccc23)NC1=O [Example 33, Cyclo[-D-Asp-Asp-Trp-D-Leu-Leu-D-Trp-]] (cyclo(DW[dL]L[dW][dD]))

Compound: CC(C)C[C@@H]1NC(=O)[C@@H](c2cccs2)NC(=O)[C@H](CC(=O)O)NC(=O)[C@H](CCC(=O)NCc2ccccc2)NC(=O)[C@@H](CC(=O)O)NC(=O)[C@@H](Cc2c[nH]c3ccccc23)NC1=O [cyclo[-D-Asp-Gln(Bzl)-Asp-D-Thg(2)-Leu-D-Trp-]]
ring closure, yield of all isomers ([1]; from CC(C)C[C@H](NC(=O)[C@H](NC(=O)OC(C)(C)C)c1cccs1)C(=O)N[C@H](Cc1c[nH]c2ccccc12)C(=O)N[C@H](CC(=O)OCc1ccccc1)C(=O)N[C@@H](CCC(=O)NCc1ccccc1)C(=O)N[C@@H](CC(=O)OCc1ccccc1)C(=O)O, 5.06 mM): 8.8%

IC50 [2]: 4 µM
Compound: CC(C)C[C@@H]1NC(=O)[C@@H](CC(C)C)NC(=O)[C@H](CC(=O)O)NC(=O)[C@H](CC(=O)N[C@@H](Cc2c[nH]c3ccccc23)C(=O)NCc2ccccc2)NC(=O)[C@@H](CC(=O)O)NC(=O)[C@@H](Cc2c[nH]c3ccccc23)NC1=O [Example 92, Cyclo[-D-Asp-Asp(Trp-NHBzl)-Asp-D-Leu-Leu-D-Trp-]] (cyclo(D([Trp-NHBn])D[dL]L[dW][dD]))

IC50 [2]: 2.6 µM
Binding Activity on ET Receptor (R. act.) ETB*2 [5]: 7.7
Binding Activity on ET Receptor (R. act.) ETA [6]: 4.0
Compound: CC(C)C[C@@H]1NC(=O)[C@H](CC(=O)O)NC(=O)[C@@H](CC(=O)O)NC(=O)[C@@H](Cc2c[nH]c3ccccc23)NC(=O)[C@H](CC(C)C)NC(=O)[C@@H](CC(C)C)NC1=O [Example 32, Cyclo[-D-Asp-Asp-Leu-D-Leu-Leu-D-Trp-]] (cyclo(DL[dL]L[dW][dD]))
